Tests used:
Experiment in all cases: relative viability (nuclei count vs DMSO), 5 days (fraction); higher = more cells survive
XMD14-99 + Tozasertib = compound: CN1CCN(CC1)C2=CC(=C(C=C2)NC3=NC(=C(S3)C(=O)C4=C(C=CC=C4Cl)Cl)N)OC [XMD14-99] + Cc1cc(Nc2cc(N3CCN(C)CC3)nc(Sc3ccc(NC(=O)C4CC4)cc3)n2)n[nH]1 [Tozasertib] (partner 0.1 µM)
Summary of the method: (§1)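 Cells from lung cancer lines were seeded into 1536-well plates and, one day later, dosed by pin tool. Treatments were either a single drug or a fixed dose of an anchor drug with five library-drug doses (not always all listed) in √10 steps. After 5 days, nuclei were stained in a one-step fixation (final 0.05% Triton X-100, 1% formaldehyde, 1 ug/ml Hoechst) and counted on 4× images, and relative viability is the treated-to-vehicle nuclei ratio, as the median of duplicate plates.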

AZD1208 + Phenformin = compound: N[C@@H]1CCCN(c2c(/C=C3\SC(=O)NC3=O)cccc2-c2ccccc2)C1 [AZD1208] + N=C(N)NC(=N)NCCc1ccccc1 [Phenformin] (partner 250 µM)
Summary of the method: as §1

XMD14-99 + AZD7762 = compound: CN1CCN(CC1)C2=CC(=C(C=C2)NC3=NC(=C(S3)C(=O)C4=C(C=CC=C4Cl)Cl)N)OC [XMD14-99] + NC(=O)Nc1cc(-c2cccc(F)c2)sc1C(=O)N[C@H]1CCCNC1 [AZD7762] (partner 0.2 µM)
Summary of the method: as §1

XMD14-99 + Pemetrexed = compound: CN1CCN(CC1)C2=CC(=C(C=C2)NC3=NC(=C(S3)C(=O)C4=C(C=CC=C4Cl)Cl)N)OC [XMD14-99] + Nc1nc2[nH]cc(CCc3ccc(C(=O)N[C@@H](CCC(=O)O)C(=O)O)cc3)c2c(=O)[nH]1 [Pemetrexed] (partner 0.2 µM)
Summary of the method: as §1

Row | Cell Line | relative viability (XMD14-99 + Tozasertib; first compound 0.08 µM) | relative viability (XMD14-99 + Tozasertib; first compound 0.8 µM) | relative viability (XMD14-99 + Tozasertib; first compound 2.53 µM) | relative viability (XMD14-99 + Tozasertib; first compound 8 µM) | relative viability (AZD1208 + Phenformin; first compound 0.08 µM) | relative viability (AZD1208 + Phenformin; first compound 0.253 µM) | relative viability (AZD1208 + Phenformin; first compound 0.8 µM) | relative viability (AZD1208 + Phenformin; first compound 2.53 µM) | relative viability (AZD1208 + Phenformin; first compound 8 µM) | relative viability (XMD14-99 + AZD7762; first compound 0.08 µM) | relative viability (XMD14-99 + AZD7762; first compound 0.8 µM) | relative viability (XMD14-99 + AZD7762; first compound 2.53 µM) | relative viability (XMD14-99 + AZD7762; first compound 8 µM) | relative viability (XMD14-99 + Pemetrexed; first compound 0.08 µM) | relative viability (XMD14-99 + Pemetrexed; first compound 0.8 µM) | relative viability (XMD14-99 + Pemetrexed; first compound 2.53 µM) | relative viability (XMD14-99 + Pemetrexed; first compound 8 µM)
1 | LC-2-ad | 0.399 | 0.481 | 0.484 | 0.418 | 0.585 | 0.604 | 0.52 | 0.534 | 0.519 | 0.869 | 0.872 | 0.889 | 0.735 | 0.268 | 0.298 | 0.268 | 0.293
2 | LCLC-97TM1 | 0.401 | 0.238 | 0.202 | 0.211 | 0.358 | 0.498 | 0.429 | 0.447 | 0.335 | 0.346 | 0.293 | 0.303 | 0.227 | 0.19 | 0.173 | 0.198 | 0.167
3 | LCLC-103H | 0.494 | 0.487 | 0.465 | 0.44 | 0.317 | 0.246 | 0.323 | 0.315 | 0.28 | 0.804 | 0.837 | 0.781 | 0.681 | 0.467 | 0.475 | 0.426 | 0.468
4 | LK-2 | 0.171 | 0.185 | 0.171 | 0.192 | 0.402 | 0.218 | 0.179 | 0.188 | 0.135 | 0.375 | 0.41 | 0.354 | 0.235 | 0.219 | 0.247 | 0.258 | 0.119
5 | LOU-NH91 | 0.709 | 0.631 | 0.645 | 0.533 | 0.715 | 0.691 | 0.659 | 0.684 | 0.574 | 0.785 | 0.814 | 0.714 | 0.675 | 0.351 | 0.379 | 0.319 | 0.415
6 | LU99A | 0.294 | 0.236 | 0.212 | 0.196 | 0.871 | 0.921 | 0.965 | 0.764 | 0.638 | 0.3 | 0.227 | 0.31 | 0.235 | 0.199 | 0.174 | 0.191 | 0.156
7 | LXF-289 | 0.183 | 0.205 | 0.196 | 0.171 | 0.507 | 0.55 | 0.472 | 0.528 | 0.518 | 1.14 | 0.969 | 1.12 | 0.98 | 0.692 | 0.862 | 0.85 | 0.781
8 | NCI-H23 | 0.453 | 0.352 | 0.279 | 0.263 | 0.793 | 0.828 | 0.627 | 0.798 | 0.609 | 0.284 | 0.312 | 0.25 | 0.188 | 0.687 | 0.783 | 0.745 | 0.494
9 | NCI-H520 | 0.432 | 0.438 | 0.363 | 0.338 | 0.47 | 0.577 | 0.476 | 0.369 | 0.279 | – | – | – | – | 0.624 | 0.625 | 0.596 | 0.501
10 | NCI-H661 | 0.355 | 0.337 | 0.37 | 0.338 | 0.264 | 0.286 | 0.276 | 0.295 | 0.268 | – | – | – | – | 0.86 | 0.796 | 0.779 | 0.678

Reference: the supplement of paper PMC10307832
